Measurements reported in patent publication US9724537B2, “Abnormal electrical conduction blocking apparatus using photodynamic therapy (PDT)” (Keio University, priority 2006, dated 2017).

How the values were obtained:
[1] = test system: myoblast strain H9c2 (2-1) derived from the rat cardiac muscle; test: PDT cell lethality (CCK-8) in cell strain H9c2 (2-1); type: cell-based
Experimental: Using a skeletal muscle-like myoblast strain H9c2 (2-1) derived from the rat cardiac muscle, the relationship between the photosensitizer concentration and the cell lethality and the laser output required to induce cell death were investigated.
The above-mentioned cells were subcultured in a D-MEM+10% FBS medium, confluent cells were isolated, seeded on a 96-well microplate, and cultured at 37° C. under 5% CO2 for one day.
The cultured cells were adjusted to a density of 2.0×10^4 cells/well. As a photosensitizer, talaporfin sodium was dissolved in a medium at various concentrations and added at a concentration of 0.1 ml/well. After 1 to 2 h of loading, cells were irradiated with a laser beam. After completion of irradiation, the medium was replaced.
At this time, in a 0.5-cm^2 irradiation field (=area of the well) was irradiated with a continuous semiconductor laser beam (peak wavelength, 670.8 nm) under various conditions.
After irradiation with a laser beam, 0.01 ml of Cell Counting Kit-8 (Dojindo Laboratories, hereinafter referred to as CCK-8) was added to the medium in each well, the plate was incubated for 2 h, and then absorbance was measured to obtain the cell lethality. For calculation of the cell lethality, the property of a coloring reagent in CCK-8 of producing a color upon reduction with dehydrogenase in the cell was utilized. Six samples were examined.
The experimental conditions were as follows.
(i) Relationship between photosensitizer concentration and cell lethality
Agent concentrations: 10, 20, 30, 40 μg/ml
Laser intensity: 150 mW/cm^2
Total energy density: 3 J/cm^2
(ii) Relationship between total energy density of laser irradiation and cell lethality
Agent concentrations: 7.5, 15 μg/ml
Total energy density: 3, 6, 9, 12 J/cm^2
(iii) Relationship between laser intensity and cell lethality

[2] = rat, cited from earlier work
[3] = Pharmacokinetics of talaporfin sodium, rat plasma; type: in vivo; conditions: intravenous
Experimental: FIG. 45 is a graph showing changes in plasma concentrations after intravenous injection to rats at various doses (10, 5, 2, 1 mg/kg) and to humans at 1 mg/kg over time, using data in pharmacology studies and clinical studies with talaporfin sodium. In rats, the average of the mean plasma concentrations measured at 47 min, which was the average of the half-lives from 2 to 60 min after intravenous injection at a dose of 10 mg/kg, and at 5 min was used as true values, and concentration changes were calculated until 60 min. Furthermore, a straight line was drawn between the value at 60 min and the value at 120 min calculated using the average of the plasma concentrations measured at 9.6 h, which was the average of the half-lives from 2 to 24 h after intravenous injection, and at 24 h as a true value. Changes at each dose were calculated assuming that the plasma concentration changed in proportion to the dose.

[4] = test system: cultured cardiac muscle cells derived from an SD rat; test: PDT cell lethality vs photosensitizer concentration, loading time and total dose (CCK-8); type: cell-based; conditions: for cell lethality at 2 h after irradiation: loading 0 to 120 min, 5, 10, 15 J/cm^2
Experimental: Using cultured cardiac muscle cells derived from an SD rat, the relationship of the photosensitizer concentration, the photosensitizer loading time, and the cell lethality and the laser output required to induce cell death were examined
Cultured cardiac muscle cells derived from an SD rat were purchased from Cell Garage Co., Ltd. D-MEM/F12+10% FBS was used as a medium.
2.2 to 2.3×10^5 cells/ml of cardiac muscle cells in suspension were seeded on a collagen-coated 96-well plate at 0.1 ml/well (2.2 to 2.3×10^4 cells/well) and cultured in an incubator (37° C., CO2 concentration 5%) for six to seven days.
At this time, talaporfin sodium as a photosensitizer was dissolved in a medium at 5, 15, or 30 μg/ml. Cardiac muscle cells were loaded with talaporfin sodium for 0, 30, 60, or 120 min and irradiated with a laser beam. Laser irradiation was performed using a continuous semiconductor laser beam (peak wavelength, 670.8 nm; power density, 150 mW/cm^2) on a 0.5-cm^2 irradiation field (=area of a well) at 5, 10, and 15 J/cm^2.
After laser irradiation, 0.01 ml of Cell Counting Kit-8 (Dojindo Laboratories, hereinafter referred to as CCK-8) was added to the medium in each well, the plate was incubated for 2 h, and the absorbance at 450 nm was measured to calculate the cell lethality. The cell lethality was calculated based on the absorbance without performing laser irradiation as 100%.

## C=Cc1c(C)c2cc3nc(c(CC(=O)N[C@@H](CC(=O)O)C(=O)O)c4[nH]c(cc5nc(cc1[nH]2)C(C)=C5CC)c(C)c4C(=O)O)[C@@H](CCC(=O)O)[C@@H]3C [talaporfin sodium, mono-L-aspartyl chlorine 6]
[1]; 7.5 μg/ml, 150 mW/cm^2, 3, 6, 9, 12 J/cm^2, FIG. 2
  cell death vs total energy density: almost no cell death was observed
[1]; 15 μg/ml, 150 mW/cm^2, 3, 6, 9, 12 J/cm^2, FIG. 2
  cell lethality vs total energy density: the greater the total energy density of laser irradiation was, the higher the cell lethality was
[1]; 40 μg/ml vs 30 μg/ml, 150 mW/cm^2, 3 J/cm^2
  cell lethality at 40 μg/ml: the result did not differ from that at 30 μg/ml
[1]; 7.5, 15 μg/ml, 3 J/cm^2, laser intensity 50 to 200 mW/cm^2, FIG. 3
  cell lethality vs laser intensity: the cell lethality did not change
[1]; up to 30 μg/ml, 150 mW/cm^2, 3 J/cm^2, FIG. 1
  cell lethality vs photosensitizer concentration: the higher the photosensitizer concentration was, the higher the cell lethality was
[2]; after intravenous injection
  average of the half-lives in plasma from 2 to 24 h: 9.6 h
[2]; intravenous injection 10 mg/kg
  average of the half-lives in plasma from 2 to 60 min: 47 min
[3]; conditions of Experiment 3 (2 mg/kg, interval 30 min)
  concentration at 30 min: 24000 ng/mL
[3]; conditions of Experiment 4 (2 mg/kg, interval 60 min)
  concentration at 60 min: 16000 ng/mL
[4]; 15 μg/ml or lower
  cell lethality at 2 h after irradiation: no marked effect was observed
[4]; 30 μg/ml, 15 J/cm^2, loading 30 min
  cell morphology immediately after laser beam irradiation: marked changes in cell morphology, such as exfoliation and shrinkage of cells, were observed
[4]; 30 μg/ml
  cell lethality at 2 h after irradiation: the cell lethality markedly increased after laser beam irradiation
[4]; loading 0, 30, 60, 120 min, FIG. 19
  cell lethality vs loading time: loading for 30 min was most effective
